Results on 4 compounds are retold here after patent EP0414533A1, “Use of iodopropargyl esters of alpha-amino acid derivatives as antimicrobial agents” (ROHM AND HAAS COMPANY, priority 1989, dated 1991).

≈ marks a conversion by molar mass, not a printed value. Structures can show the parent of a compound that is named as a salt. Where two headings read alike, the source gives them in different places.

Test [1] concerns THREE FUNGI. The test can be described thus: MIC test against three fungi in Mycophile Broth, pH 5.0, read after 8 days (Table VII). The format is cell-based. To be noted: 192 h.
Test [2] has as its system 8 FUNGI. As to the kind of experiment: Microbicides secondary test against 8 fungi on Mycophile Agar at pH 5.0 (Table VI). Type of test: cell-based. Further details: key: 1= no growth; 0= growth of the indicated fungi at dose indicated in ppm. To be noted: for ANIG growth: Aspergillus niger; for APUL growth: Aureobasidium pullulans; for CGLO growth: Chaetomium globosum; for CRES growth: Cladosporium resinae; for GTRA growth: Gloeophyllum trabeum; for PFUN growth: Penicillium funiculosum; for RRUB growth: Rhodotorula rubra; for SSER growth: Sacharomyces cerevisiae. The source says: The results of the minimum inhibitory concentration (MIC) tests of compounds of this invention are shown in Tables IIIa IIIb, IIIc, V, VI, VII, and VIII against the microorganisms shown in Table IX.

Test [3] relates to Escherichia coli (ECOL). As to the kind of experiment: Minimum inhibitory concentration (MIC), broth two-fold serial dilution test. To be noted: Escherichia coli.
Excerpt: (§1) When the test is ready to be done, each vessel in the dilution series, except the first vessel, contains an equal volume of compound free broth. The first vessel contains twice the volume of broth with the starting concentration of test compound. One half of the broth from the first vessel is transferred to the second vessel. After being mixed, one half the resulting volume is removed from the second vessel and transferred to the third vessel. The entire cycle is repeated sufficiently to give a series of concentrations amounting to 500, 250, 125, 63, 31, 16, 8, and 4 ppm (or 100, 50, 25, 12.5, 6.2, 3.1, 1.6, and 0.8), respectively.
(§2) Each vessel is then inoculated with a cell suspension of the appropriate test organism. Bacteria are grown in broth, fungi on agar slants for a time and at a temperature appropriate to the species being tested, and algae are a mixture of green algae and blue-green bacteria grown in a nutrient media. At the end of the growth period, in the case of bacteria, the broth is vortexed to disperse the cells.
(§3) The vessels are then incubated at the appropriate temperature. After the incubation, the vessels are examined for growth/no growth.
Test [4] has as its system Pseudomonas aerugenosa (PSAE). The description is as above. To be noted: Pseudomonas.
The test system of test [5] is Aureobasidium pullulans (APUL). The description is as above. Type of test: cell-based. To be noted: Aureobasidium pullulans.
Test [6] deals with MIXED COOLING TOWER ALGAE. The test can be described thus: MIC test against mixed cooling tower algae. The format is cell-based, green algae and blue-green bacteria. The following applies: Table VIII. Here is the method: The algae culture contains green algae and blue-green bacteria, and is obtained from a cooling tower in Spring House, Pennsylvania. The algae culture is grown in Allen's medium on a rotary shaker under flourescent room lighting. This culture is further diluted with Allen's medium and then added to the test vessel.

For test [7], the system named is Aspergillus niger (ANIG). As to the kind of experiment: Minimum inhibitory concentration (MIC), broth two-fold serial dilution test. To be noted: Aspergillus niger. The format is cell-based.
The test system of test [8] is Pseudomonas fluorescens (PSFL). The test is described as above. To be noted: Pseudomonas fluorescens.
Excerpt: as §1, §2, §3
The test system of test [9] is Staphylococcus aureus (SAUR). The test is described as above. To be noted: Staphylococcus aureus.
Excerpt: as §1, §2, §3
Test [10] has as its system Botrytis cinerea (BOC). As to the kind of experiment: In-vitro plant fungicide test. Type of test: cell-based. The following applies: Botrytis cinerea, 25 ppm; Table IVa; *=Phytotoxic; read-out: % Control at 25 ppm BOC.
Test [11] deals with Piricularia oryzae (PIR). As to the kind of experiment: microbe, parasite or virus in culture. The format is cell-based. The following applies: read-out: % Control at 25 ppm PIR.
In test [12] the test system is Pythium ultimum (PYU). The test can be described thus: In-vitro plant fungicide test. Type of test: cell-based. The following applies: Globisporangium ultimum; 25 ppm; Table IVa; read-out: % Control at 25 ppm PYU.
The subject of test [13] is Rhizoctonia solani (RHI). As to the kind of experiment: In-vitro plant fungicide test. The format is cell-based. To be noted: Rhizoctonia solani; 25 ppm; Table IVa; read-out: % Control at 25 ppm RHI.
For test [14], the system named is Septoria nodorum (SEP). As to the kind of experiment: In-vitro plant fungicide test. Type of test: cell-based. The following applies: Parastagonospora nodorum, 25 ppm; Table IVa; read-out: % Control at 25 ppm SEP.
Test [15] concerns Xanthomonas campestris (XAN). The test can be described thus: In-vitro plant fungicide test. Type of test: cell-based. To be noted: Xanthomonas campestris; 25 ppm; Table IVa; read-out: % Control at 25 ppm XAN.
For test [16], the system named is Cochliobolus sativus (HEL). As to the kind of experiment: In-vitro plant fungicide test. To be noted: Bipolaris sorokiniana, 25 ppm; Table IVa; *=Phytotoxic; read-out: % Control at 25 ppm HEL. Type of test: cell-based.
The test system of test [17] is Fusarium roseum (FUS). As to the kind of experiment: In-vitro plant fungicide test. The format is cell-based. The following applies: Fusarium sambucinum, read-out: % Control at 25 ppm FUS, 25 ppm; Table IVa; *=Phytotoxic.
The test system of test [18] is Phytophthora capsici (PHY). The test can be described thus: In-vitro plant fungicide test. The following applies: Phytophthora capsici; 25 ppm; Table IVa; read-out: % Control at 25 ppm PHY. The format is cell-based.
Where [19] appears, read: Aspergillus niger, serial dilutions from 50 ppm, read after 8 days of incubation, read-out: MIC ANIG.
[20] abbreviates: Aureobasidium pullulans, serial dilutions from 50 ppm, read after 8 days of incubation, read-out: MIC APUL.
The mark [21] stands for this setting: Gloeophyllum trabeum, serial dilutions from 50 ppm, read after 8 days of incubation, read-out: MIC GTRA.
Setting [22] is: read-out: MIC (G-) ECOL, M9G (minimal salts media with glucose), Table IIIc, iodopropargyl esters of peptides.
Setting [23] is: read-out: MIC (G-) PSAE, M9G (minimal salts media with glucose), Table IIIc, iodopropargyl esters of peptides.
The mark [24] stands for this setting: read-out: MIC (G-) PSFL, M9G (minimal salts media with glucose), Table IIIc, iodopropargyl esters of peptides.
[25] abbreviates: read-out: MIC (G+) SAUR, M9G (minimal salts media with glucose), Table IIIc, iodopropargyl esters of peptides.
The mark [26] stands for this setting: Aspergillus niger, pH 5, read-out: MIC ANIG, Aspergillus niger, serial dilutions from 50 ppm, read after 8 days of incubation.
The mark [27] stands for this setting: Aureobasidium pullulans, pH 5, read-out: MIC APUL, Aureobasidium pullulans, serial dilutions from 50 ppm, read after 8 days of incubation.
[28] abbreviates: Gloeophyllum trabeum, pH 5, read-out: MIC GTRA, Gloeophyllum trabeum, serial dilutions from 50 ppm, read after 8 days of incubation.

`CCCCCCCC(=O)NCC(=O)OCC#CI` [Compound 34, N-octanoylglycine iodopropargyl ester]: the minimum inhibitory concentration (MIC) (as a rule, the lowest concentration found to suppress growth) was 1.6 µg/mL (≈ 4.38 µM) in test [1] (setting [19]); 12.5 µg/mL (≈ 34.2 µM) in test [1] (setting [20]); 3.2 µg/mL (≈ 8.76 µM) in test [1] (setting [21]); above 250 µg/mL in test [3] (IIIB, read-out: MIC (G-) ECOL, trypticase soy broth (complex media), Table IIIb); 125 µg/mL (≈ 342 µM) in test [4] (IIIB, read-out: MIC (G-) PSAE, trypticase soy broth (complex media), Table IIIb); 8 µg/mL (≈ 21.9 µM) in test [5] (IIIB, trypticase soy broth (complex media), Table IIIb, read-out: MIC (F) APUL). The MIC in test [6] was 12.5 µg/mL (≈ 34.2 µM); in test [7] (IIIB, trypticase soy broth (complex media), Table IIIb, read-out: MIC (F) ANIG) it was below 0.12 µg/mL; in test [8] (IIIB, read-out: MIC (G-) PSFL, trypticase soy broth (complex media), Table IIIb), 63 µg/mL (≈ 173 µM); in test [9] (IIIB, read-out: MIC (G+) SAUR, trypticase soy broth (complex media), Table IIIb), 250 µg/mL (≈ 685 µM). The ANIG growth is on record as 0 in test [2] (0.2 PPM), 1 in test [2] (1.0 PPM), 1 in test [2] (2.5 PPM) and 1 in test [2] (25 PPM). The APUL growth in test [2] (0.2 PPM) amounted to 0; in test [2] (1.0 PPM), 0; in test [2] (2.5 PPM), 0; in test [2] (25 PPM), 1. Besides, the CGLO growth in test [2] (0.2 PPM) is listed as 0; in [2] (1.0 PPM), 1; in test [2] (2.5 PPM), 0; in [2] (25 PPM), 1. The CRES growth in test [2] (0.2 PPM) came out at 0; in test [2] (1.0 PPM) it was 0; in test [2] (2.5 PPM), 0; in [2] (25 PPM), 1. Besides, the GTRA growth in test [2] (0.2 PPM) amounted to 0; in test [2] (1.0 PPM), 1; in test [2] (2.5 PPM), 1; in [2] (25 PPM), 1. Moreover, the PFUN growth came out at 0 in [2] (0.2 PPM), 0 in test [2] (1.0 PPM), 1 in test [2] (2.5 PPM) and 1 in [2] (25 PPM). Moreover, the RRUB growth in test [2] (0.2 PPM) was 0; in [2] (1.0 PPM) it was 0; in [2] (2.5 PPM), 0; in test [2] (25 PPM), 1. The SSER growth was 0 in test [2] (0.2 PPM), 0 in [2] (1.0 PPM), 0 in [2] (2.5 PPM) and 1 in test [2] (25 PPM).
On to `C[C@H](NC(=O)OC(C)(C)C)C(=O)N[C@@H](CSCc1ccccc1)C(=O)OCC#CI` [Compound 15, N-t-butoxycarbonyl-L-alanyl-S-benzyl-L-cysteine iodopropargyl ester], for which the inhibition of growth at 25 ppm in [10] stood at 0%; in test [11], 100%; in test [12], 100%; in test [13], 100%; in test [14], 100%; in [15], 0%. Moreover, the inhibition of growth at 25 ppm in [16] stood at 0%; in test [17], 100%; in [18] it was 100%. Also, the MIC in test [1] (setting [19]) is above 50 µg/mL; in test [1] (setting [20]) it was above 50 µg/mL; in test [1] (setting [21]), 50 µg/mL (≈ 91.5 µM); in [3] (setting [22]), above 100 µg/mL; in test [4] (setting [23]), above 100 µg/mL; in test [5] (M9G (minimal salts media with glucose), Table IIIc, iodopropargyl esters of peptides, read-out: MIC (F) APUL), 1.6 µg/mL. In addition, the MIC in test [7] (M9G (minimal salts media with glucose), Table IIIc, iodopropargyl esters of peptides, read-out: MIC (F) ANIG) is 6 µg/mL; in test [8] (setting [24]), above 100 µg/mL; in test [9] (setting [25]), above 100 µg/mL.
In the case of `N[C@@H](COCc1ccccc1)C(=O)OCC#CI` [Compound 9, O-benzyl-L-serine iodopropargyl ester trifluoroacetate], the inhibition of growth at 25 ppm is 100% in test [10]; 100% in test [11]; 100% in [12]; 100% in test [13]; 100% in test [14]; 0% in test [15]. For the same compound, the inhibition of growth at 25 ppm in test [16], in [17] and in test [18] was 100% in each case. In addition, the MIC in [1] (setting [26]) is 25 µg/mL; in test [1] (setting [27]), 50 µg/mL; in [1] (setting [28]) it was 12.5 µg/mL; in test [3] (read-out: MIC (G-) ECOL, M9G (minimal salts media with glucose), Table IIIa), 64 µg/mL; in [4] (read-out: MIC (G-) PSAE, M9G (minimal salts media with glucose), Table IIIa), 125 µg/mL; in test [5] (read-out: MIC (F) APUL, M9G (minimal salts media with glucose), Table IIIa), below 4 µg/mL. For the same compound, the MIC was below 4 µg/mL in test [7] (read-out: MIC (F) ANIG, M9G (minimal salts media with glucose), Table IIIa); 25 µg/mL in test [8] (read-out: MIC (G-) PSFL, M9G (minimal salts media with glucose), Table IIIa); 500 µg/mL in test [9] (read-out: MIC (G+) SAUR, M9G (minimal salts media with glucose), Table IIIa).
Regarding `C[C@H](N)C(=O)N[C@@H](C)C(=O)OCC#CI` [Compound 18, L-alanyl-L-alanine iodopropargyl ester trifluoroacetate], the inhibition of growth at 25 ppm is 50% in test [10]; 100% in test [11]; 100% in test [12]; 100% in [13]; 100% in [14]; 0% in [15]. Also, the inhibition of growth at 25 ppm in test [16], in test [17] and in test [18] was 100% each time. The MIC in test [1] (setting [26]) was 12.5 µg/mL; in test [1] (setting [27]) it was 50 µg/mL; in test [1] (setting [28]), 12.5 µg/mL; in test [3] (setting [22]) it was 100 µg/mL; in [4] (setting [23]), 100 µg/mL; in test [5] (read-out: MIC (F) APUL, M9G (minimal salts media with glucose), Table IIIc, iodopropargyl esters of peptides), below 0.8 µg/mL. The MIC in test [7] (read-out: MIC (F) ANIG, M9G (minimal salts media with glucose), Table IIIc, iodopropargyl esters of peptides) was below 0.8 µg/mL; in test [8] (setting [24]), 100 µg/mL; in [9] (setting [25]), above 100 µg/mL.
